The record followed here is patent US11149292B2, “Processes for the preparation of (R)-2-(7-(4-cyclopentyl-3-(trifluoromethyl)benzyloxy)-1,2,3,4-tetrahydrocyclopenta[B]indol-3-yl)acetic acid and salts thereof” (Arena Pharmaceuticals, Inc., priority 2010, dated 2021).

Series [1] relates to Male Sprague-Dawley rats. In words: Rat Peripheral Lymphocyte Lowering (PLL) assay. Format: in vivo. The conditions noted are these: 1.00 mg/kg oral dose; blood at 5 hours post-dose; FIG. 2. As to the method:
Male Sprague-Dawley rats (7 weeks of age at start of study) (Charles River Laboratories) were housed two per cage and maintained in a humidity-controlled (40-60%) and temperature-controlled (68-72° F.) facility on a 12 h:12 h light/dark cycle (lights on at 6:30 am) with free access to food (Harlan Teklad, Orange, Calif., Rodent Diet 8604) and water. Rats were allowed one week of habituation to the animal facility before testing. […] Peripheral blood samples were collected at 5 hours post-dose. Blood was collected via indwelling catheter. A complete cell count (CBC), including lymphocyte count, was obtained using a CELL-DYN® 3700 (Abbott Laboratories, Abbott Park, Ill.) instrument. Results are presented in FIG. 2, in which peripheral blood lymphocyte (PBL) count is shown for the 5 hour group.

Series [2] has as its system Male Sprague-Dawley rats. As to the kind of experiment: Cardiac telemetry in the rat (exemplary bradycardia assay). The conditions noted are these: oral, vehicle PEG400; heart rate measured over a 120 min period. Format: in vivo. As to the method: Male Sprague-Dawley rats (250-300 g at time of surgery) were implanted by Charles River Laboratories (Wilmington, Mass.) with cardiac transmitting devices (Data Sciences PhysioTel C50-PXT) into the peritoneal space, with a pressure-sensing catheter inserted into the descending aorta. Rats are allowed at least one week to recover. Rats were housed in individual cages and maintained in a humidity-controlled (30-70%) and temperature-controlled (20-22° C.) facility on a 12 h:12 h light/dark cycle (lights on at 7:00 am) with free access to food (Harlan-Teklad, Orange, Calif., Rodent Diet 8604) and water. Rats were allowed one week of habituation to the animal facility before testing.
The implanted transmitting devices transmitted continuous measurements of blood pressure (systolic, diastolic, mean arterial, pulse), heart rate, body temperature, and motor activity in freely moving conscious animals. […] Telemetry recording occurred over a 21-h period, starting at noon and continuing until 9:00 am the following day. […]
By way of illustration and not limitation, the rats were administered vehicle (PEG 400) and (R)-2-(7-(4-cyclopentyl-3-(trifluoromethyl)benzyloxy)-1,2,3,4-tetrahydrocyclopenta[b]indol-3-yl)acetic acid and heart rate was then measured over a 120 min period.

The subject of the next series is Female C57BL/6 mice. As to the kind of experiment: MOG-induced experimental autoimmune encephalomyelitis (EAE) in mice. Format: in vivo, mouse. The conditions noted are these: 0.3, 1 and 3 mg/kg orally once a day from day 3 until day 21; FIG. 4.
Another series concerns Female Lewis rats. In words: Collagen-induced arthritis rat model. Format: in vivo. The conditions noted are these: 0.3, 1 and 3 mg/kg p.o., q.d., day 0 to day 16; FIG. 3. The method, then:
Female Lewis rats were used in this study. Acclimated animals were anesthetized with isoflurane and given the first collagen injection (day 0). On day 6, they were anesthetized again for the second collagen injection. Collagen was prepared by making a 4 mg/mL solution in 0.01 N acetic acid. Equal volumes of collagen and incomplete Freund's adjuvant were emulsified by hand mixing until a bead of this material held its form when placed in water. Each animal received 300 μL of the mixture each time, spread over 3 subcutaneous sites on the back. Treatment (p.o., q.d., 5 mL/kg dosing volume) began on day 0 and continued through day 16 with vehicle or compounds given at 24 h intervals. Rats were weighed on days 0, 3, 6 and 9 through 17 and caliper measurements of the ankles taken on days 9 through 17.

Another series has as its target S1P1 receptor (Homo sapiens (Human), UniProt P21453). In words: HTRF assay for direct cAMP measurement in recombinant CHO-K1 cells stably transfected with S1P1. Format: cell-based. From the text:
CHO-K1 cells were obtained from ATCC® (Manassas, Va.; Catalog #CCL-61). […] The HTRF® assay has been used to determine EC50 values for S1P1 receptor agonists.
HTRF® assay kit was purchased from Cisbio-US, Inc. (Bedford, Mass.; Catalog #62AM4PEC). The HTRF® assay supported by the kit is a competitive immunoassay between endogenous cAMP produced by the CHO-K1 cells and tracer cAMP labeled with the dye d2. The tracer binding is visualized by a monoclonal anti-cAMP antibody labeled with Cryptate. The specific signal (i.e., fluorescence resonance energy transfer, FRET) is inversely proportional to the concentration of unlabeled cAMP in the standard or sample.
The fluorescence ratio (665 nm/620 nm) of the standards (0.17 to 712 nM cAMP) included in the assay was calculated and used to generate a cAMP standard curve according to the kit manufacturer's instructions. The fluorescence ratio of the samples (test compound or compound buffer) was calculated and used to deduce respective cAMP concentrations by reference to the cAMP standard curve.
The HTRF® assay was carried out using a two-step protocol essentially according to the kit manufacturer's instructions, in […] total volume per well in 384-well plate format (ProxiPlates; PerkinElmer, Fremont, Calif.; catalog #6008280). […] The plate was then further incubated at room temperature for 1 hour, after which the assay plate was read. […]

For a further series, the system named is Male BALB/c mice. In words: Mouse Peripheral Lymphocyte Lowering (PLL) assay. Format: in vivo. The conditions noted are these: 1.00 mg/kg oral dose; blood at 5 hours post-dose; FIG. 1. As to the method: Male BALB/c mice (Charles River Laboratories, Wilmington, Mass.) were housed four per cage and maintained in a humidity-controlled (40 to 60%) and temperature-controlled (68 to 72° F.) facility on a 12 h:12 h light/dark cycle (lights on at 6:30 am) with free access to food (Harlan Teklad, Orange, Calif., Rodent Diet 8604) and water. Mice were allowed one week of habituation to the animal facility before testing. PLL Assay: […] Peripheral blood samples were collected at 5 hours post-dose. The mice were anesthetized with isoflurane and blood was collected via cardiac puncture. A complete cell count (CBC), including lymphocyte count, was obtained using a CELL-DYN® 3700 (Abbott Laboratories, Abbott Park, Ill.) instrument. Results are presented in FIG. 1, in which peripheral blood lymphocyte (PBL) count is shown for the 5 hour group.

S1P1 receptor, sequence (P21453 whole entry): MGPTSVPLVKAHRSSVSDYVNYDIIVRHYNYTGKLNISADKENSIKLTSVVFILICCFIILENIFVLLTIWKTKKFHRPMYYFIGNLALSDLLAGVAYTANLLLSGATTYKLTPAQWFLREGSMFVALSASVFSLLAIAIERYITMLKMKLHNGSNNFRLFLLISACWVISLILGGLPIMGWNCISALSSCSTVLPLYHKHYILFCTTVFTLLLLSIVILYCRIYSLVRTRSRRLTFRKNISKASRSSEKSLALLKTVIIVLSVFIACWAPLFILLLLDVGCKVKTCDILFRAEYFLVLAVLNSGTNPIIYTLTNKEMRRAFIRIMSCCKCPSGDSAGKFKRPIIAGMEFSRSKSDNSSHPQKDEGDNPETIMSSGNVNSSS

On to `O=C(O)C[C@H]1CCc2c1[nH]c1ccc(OCc3ccc(C4CCCC4)c(C(F)(F)F)c3)cc21` [(R)-2-(7-(4-cyclopentyl-3-(trifluoromethyl)benzyloxy)-1,2,3,4-tetrahydrocyclopenta[b]indol-3-yl)acetic acid], for which the “peripheral blood lymphocyte (PBL) count lowering vs vehicle” value in the series with Male Sprague-Dawley rats [1] and in the series with Male BALB/c mice was “exhibited activity for inducing PBL lowering (lymphopenia)” each time. The “reduction of heart rate (bradycardia) vs vehicle” value with Male Sprague-Dawley rats [2] is reported as “no or substantially no reduction of heart rate”. The “reduction of severity of disease symptoms (clinical score) in EAE” value in the series with Female C57BL/6 mice is reported as “exhibited activity in the mouse EAE assay”. For the same molecule, the “reduction of mean ankle diameter” value in the series on Female Lewis rats was “exhibited activity for reducing mean ankle diameter”. The “S1P1 receptor agonism (decrease of cAMP concentration)” value at S1P1 receptor is “agonist of the S1P1 receptor”.
